System: Es-2 sulfatase
Assay: Effect of salts on sulfatase activity (protocol as for ions)
Format: biochemical, Streptomyces sp. T109-3
Settings: 5 mM of a salt
Experimental: (§1) (a) Optimum pH. The enzyme solution (0.6 u in 50 µl of 50 mM Tris-HCl, pH 7.5) was mixed with 100 µl each of the following buffers: 500 mM sodium acetate (pH 4.0-5.5), 500 mM Tris-maleate (pH 5.5-7.7), 500 mM Tris-HCl (pH 7.5-9.0), and 500 mM glycine-NaOH (pH 9.0-10.0). The substrate, p-nitrophenylsulfate, was similarly dissolved in each of the above buffers (1 mg/ml). A sample (150 µl) from the enzyme solution is mixed with the substrate (50 µl) in the same buffer, and the mixture was incubated for 30 minutes at 37°C. The enzyme activity in each buffer was determined spectrophotometrically by UV at 415 nm. The optimal pH of the enzyme was thus determined to be about 9.0 (Fig. 1A). (b) pH stability. The stock enzyme solution was dialyzed against water to remove salts. The enzyme solution was adjusted to 0.6 u/10 µl with Tris-HCl buffer (pH 7.5). This solution (10 µl) was mixed with 40 µl each of the buffer listed in (a) and incubated for 30 minutes at 30°C. The enzyme sample (50 µl) was mixed with 100 µl of 500 mM Tris-HCl (pH 9.0) and 50 µl of substrate in water (1mg/ml), and the mixture was incubated at 37°C for 30 minutes to determine the residual enzyme activity. […] (c) Optimum temperature. Enzyme (0.6 u) in 150 µl of 50 mM Tris-HCl (pH 9.0) were incubated with p-nitrophenylsulfate (1 mg/ml, 50 µl) in the same buffer (pH 9.0) for 30 minutes at various temperatures (200 µl each). […] (d) Temperature stability. Enzyme preparations (0.6 u) in 50 mM Tris-HCl (150 µl, pH 9.0) were incubated for 15 minutes at various temperatures and then cooled in an ice bath. p-Nitrophenylsulfate (1 mg/ml, 50 µl) was added to the enzyme solution, and the mixture was incubated for 30 minutes at 37°C. The enzyme was stable below 30°C at pH 9.0 (Fig. 2B). (e) Effect of ions. Enzyme (0.6 u), p-nitrophenyl sulfate 4 mM, and ion 1 mM were dissolved in 200 µl of Tris-HCl (50 mM). The solution was incubated for 30 minutes at 37°C. p-Nitrophenol released was spectrophotometrically assayed by UV at 415 nm. […]
(g) Effect of salts. The protocol used in (e) was followed, except that 5 mM of a salt was used instead of 1 mM of a metal ion. […]
In the case of K2HPO4, the “inhibition of sulfatase activity (in words)” value was “strongly inhibited”.

Same assay, conditions: 5 mM of a salt; p-nitrophenyl sulfate 4 mM; 30 minutes at 37°C
With (NH4)2SO4 the “% Inhibit.” value was 44%.
With K2HPO4 the “% Inhibit.” value was 100%.
With K2SO4 the “% Inhibit.” value was 36%.
In the case of NaCl, the “% Inhibit.” value was 58%.

System: not given
Assay: not given
Settings: background statement; compound disclosed in Japanese Kokai 88/192,793; cited from earlier work
For COc1cc([C@@H]2c3cc4c(cc3[C@@H](O[C@@H]3O[C@@H]5CO[C@@H](C)O[C@H]5[C@H](O)[C@H]3O)[C@H]3COC(=O)[C@H]23)OCO4)cc(OC)c1OS(=O)(=O)O [(III), etoposide 4'-sulfate], the “cytotoxicity relative to etoposide” value is given as “much less cytotoxic than etoposide itself”.

System: Es-2 sulfatase
Assay: EDTA treatment of the enzyme and recovery of activity by Ca2+
Format: biochemical, Streptomyces sp. T109-3
Settings: 10 mM of EDTA followed by dialysis against water
Experimental: (a) Optimum pH. The enzyme solution (0.6 u in 50 µl of 50 mM Tris-HCl, pH 7.5) was mixed with 100 µl each of the following buffers: 500 mM sodium acetate (pH 4.0-5.5), 500 mM Tris-maleate (pH 5.5-7.7), 500 mM Tris-HCl (pH 7.5-9.0), and 500 mM glycine-NaOH (pH 9.0-10.0). The substrate, p-nitrophenylsulfate, was similarly dissolved in each of the above buffers (1 mg/ml). A sample (150 µl) from the enzyme solution is mixed with the substrate (50 µl) in the same buffer, and the mixture was incubated for 30 minutes at 37°C. The enzyme activity in each buffer was determined spectrophotometrically by UV at 415 nm. The optimal pH of the enzyme was thus determined to be about 9.0 (Fig. 1A). (b) pH stability. The stock enzyme solution was dialyzed against water to remove salts. The enzyme solution was adjusted to 0.6 u/10 µl with Tris-HCl buffer (pH 7.5). This solution (10 µl) was mixed with 40 µl each of the buffer listed in (a) and incubated for 30 minutes at 30°C. The enzyme sample (50 µl) was mixed with 100 µl of 500 mM Tris-HCl (pH 9.0) and 50 µl of substrate in water (1mg/ml), and the mixture was incubated at 37°C for 30 minutes to determine the residual enzyme activity. […] (c) Optimum temperature. Enzyme (0.6 u) in 150 µl of 50 mM Tris-HCl (pH 9.0) were incubated with p-nitrophenylsulfate (1 mg/ml, 50 µl) in the same buffer (pH 9.0) for 30 minutes at various temperatures (200 µl each). […]
In the case of O=C(O)CN(CCN(CC(=O)O)CC(=O)O)CC(=O)O [EDTA], the “sulfatase activity after treatment of the enzyme with EDTA” value was “the sulfatase activity disappeared”.

System: Es-2 sulfatase
Assay: Effect of enzyme inhibitors on sulfatase activity (protocol as for ions)
Format: biochemical, Streptomyces sp. T109-3
Settings: 1000 µM
Experimental: (a) Optimum pH. The enzyme solution (0.6 u in 50 µl of 50 mM Tris-HCl, pH 7.5) was mixed with 100 µl each of the following buffers: 500 mM sodium acetate (pH 4.0-5.5), 500 mM Tris-maleate (pH 5.5-7.7), 500 mM Tris-HCl (pH 7.5-9.0), and 500 mM glycine-NaOH (pH 9.0-10.0). The substrate, p-nitrophenylsulfate, was similarly dissolved in each of the above buffers (1 mg/ml). A sample (150 µl) from the enzyme solution is mixed with the substrate (50 µl) in the same buffer, and the mixture was incubated for 30 minutes at 37°C. The enzyme activity in each buffer was determined spectrophotometrically by UV at 415 nm. […] (b) pH stability. The stock enzyme solution was dialyzed against water to remove salts. The enzyme solution was adjusted to 0.6 u/10 µl with Tris-HCl buffer (pH 7.5). This solution (10 µl) was mixed with 40 µl each of the buffer listed in (a) and incubated for 30 minutes at 30°C. The enzyme sample (50 µl) was mixed with 100 µl of 500 mM Tris-HCl (pH 9.0) and 50 µl of substrate in water (1mg/ml), and the mixture was incubated at 37°C for 30 minutes to determine the residual enzyme activity. […] (c) Optimum temperature. Enzyme (0.6 u) in 150 µl of 50 mM Tris-HCl (pH 9.0) were incubated with p-nitrophenylsulfate (1 mg/ml, 50 µl) in the same buffer (pH 9.0) for 30 minutes at various temperatures (200 µl each). […] (d) Temperature stability. Enzyme preparations (0.6 u) in 50 mM Tris-HCl (150 µl, pH 9.0) were incubated for 15 minutes at various temperatures and then cooled in an ice bath. p-Nitrophenylsulfate (1 mg/ml, 50 µl) was added to the enzyme solution, and the mixture was incubated for 30 minutes at 37°C. […] (e) Effect of ions. Enzyme (0.6 u), p-nitrophenyl sulfate 4 mM, and ion 1 mM were dissolved in 200 µl of Tris-HCl (50 mM). The solution was incubated for 30 minutes at 37°C. p-Nitrophenol released was spectrophotometrically assayed by UV at 415 nm.
(f) Effect of enzyme inhibitors. The protocol used in (e) was followed with the exception that 1 mM of an enzyme inhibitor was used instead of a metal ion.
In the case of O=C(O)CN(CCN(CC(=O)O)CC(=O)O)CC(=O)O [EDTA], the “% Inhibit.” value was 69%.
For O=C(O)CI [Iodoacetic acid], the “% Inhibit.” value was 96%.

Same assay, conditions: 1 mM of an enzyme inhibitor; p-nitrophenyl sulfate 4 mM; 30 minutes at 37°C
For O[C@H](CS)[C@H](O)CS (racemic) [Dithiothreitol], the “% Inhibit.” value was 34%.
For c1cnc2c(c1)ccc1cccnc12 [1,10-Phenanthroline], the “% Inhibit.” value was 60%.
In the case of OCCS [2-Mercaptoethanol], the “% Inhibit.” value was 22%.
In the case of O=C(O)CC(O)(CC(=O)O)C(=O)O [Citrate], the “% Inhibit.” value was 87%.
In the case of N[C@@H](CS)C(=O)O [Cysteine], the “% Inhibit.” value was 18%.
For c1c[nH]cn1 [Imidazole], the “% Inhibit.” value was 14%.
For CCN1C(=O)C=CC1=O [N-Ethylmaleimide], the “% Inhibit.” value was 35%.
For O=S(=O)(F)Cc1ccccc1 [Phenylmethanesulfonyl fluoride], the “% Inhibit.” value was 81%.
With O=C(O)c1cc[c]([Hg][Cl])cc1 [p-Chloromercuribenzoic acid] the “% Inhibit.” value was 78%.

System: Es-2 sulfatase
Assay: Effect of metal ions on sulfatase activity (p-nitrophenyl sulfate hydrolysis, UV at 415 nm)
Format: biochemical, Streptomyces sp. T109-3
Settings: ion 1 mM; enzyme 0.6 u; p-nitrophenyl sulfate 4 mM; Tris-HCl 50 mM; 30 minutes at 37°C
Experimental: Sulfatase activity during purification is monitored by determining the conversion of p-nitrophenylsulfate into p-nitrophenol using spectrophotometric means. Specifically, the following assay method is used. 50 µl of a p-nitrophenylsulfate solution (1 mg/ml in 50 mM Tris-HCl, pH7.5), 50 µl of a sample, and 100 µl of 50 mM Tris-HCl, pH 7.5, are mixed and incubated for 30 minutes at 37°C. If the activity is weak, the incubation time is prolonged up to 18 hours. The liberated p-nitrophenol is determined spectrophotometrically at 415 nm. From standard curves of p-nitrophenol and protein concentrations, the unit or specific activity per mg of the enzyme is calculated. The protein concentration is determined by measuring the absorption at 280 nm throughout purification and, in case of homogeneous protein, by the Bradford method [Bradford, M., et al., Anal. Biochem., 1976, 72:248-254] using bovine serum albumin as the standard protein. A unit of sulfatase activity is defined as the amount of enzyme which can hydrolyze one nanomole of p-nitrophenyl sulfate to p-nitrophenol in one minute at 37°C at pH 7.5.
as §1
For [Cl][Hg][Cl] [HgCl2], the “Inhibit. (%)” value was 100% and the “Rel. Activity (%)” value was 0%.
In the case of AlCl3, the “Inhibit. (%)” value was 33% and the “Rel. Activity (%)” value was 67%.
In the case of BaCl2, the “Inhibit. (%)” value was 17% and the “Rel. Activity (%)” value was 83%.
For CaCl2, the “Rel. Activity (%)” value was 213%.
In the case of CoCl2, the “Inhibit. (%)” value was 66% and the “Rel. Activity (%)” value was 34%.
In the case of CuCl2, the “Inhibit. (%)” value was 44% and the “Rel. Activity (%)” value was 56%.
In the case of FeCl2, the “Inhibit. (%)” value was 88% and the “Rel. Activity (%)” value was 12%.
With FeCl3 the “Inhibit. (%)” value was 49% and the “Rel. Activity (%)” value was 51%.
In the case of MnCl2, the “Inhibit. (%)” value was 66% and the “Rel. Activity (%)” value was 34%.
For NiCl2, the “Inhibit. (%)” value was 41% and the “Rel. Activity (%)” value was 59%.
For ZnCl2, the “Inhibit. (%)” value was 82% and the “Rel. Activity (%)” value was 18%.

System: sulfatase of the invention
Assay: Substrate specificity: etoposide derivatives incubated with the enzyme, TLC analysis
Format: biochemical, Streptomyces sp. T109-3
Settings: substrate 50 µl, 1 mg/ml; enzyme 0.6 u; 37°C for 30 minutes; silica gel TLC
Experimental: (h) Substrate specificity. Four etoposide derivatives were tested as substrate for the sulfatase of the invention. The substrates are: etoposide 4'-sulfate (III), 2",3"-di-O-acetyl-etoposide-4'-sulfate (IV), etoposide 2"-sulfate (V), and etoposide 3"-sulfate (VI). The substrate (50 µl, 1 mg/ml, MeOH:H2O = 1:1, pH 9.0) and the enzyme (50 µl, 0.6 u, 50 mM Tris-HCl, pH 7.5) were mixed and incubated at 37°C for 30 minutes. The mixture was then analyzed on a silica gel TLC plate using a solvent system consisting of chloroform-methanol (10:1 v/v).
With COc1cc([C@@H]2c3cc4c(cc3[C@@H](O[C@@H]3O[C@@H]5CO[C@@H](C)O[C@H]5[C@H](O)[C@H]3O)[C@H]3COC(=O)[C@H]23)OCO4)cc(OC)c1OS(=O)(=O)O [(III), etoposide 4'-sulfate] the “substrate for the enzyme” value was “are not”.
With COc1cc([C@@H]2c3cc4c(cc3[C@@H](O[C@@H]3O[C@@H]5CO[C@@H](C)O[C@H]5[C@H](OC(C)=O)[C@H]3OC(C)=O)[C@H]3COC(=O)[C@H]23)OCO4)cc(OC)c1OS(=O)(=O)O [(IV), 2",3"-di-O-acetyl-etoposide-4'-sulfate] the “substrate for the enzyme” value was “are not”.
